In brackets after ≈: the same amount, converted by molar mass. Several values for one entry are separate records, joined by “and”; a condition that tells them apart may be missing. Identical values can stand only once.
How the values were obtained:
[1] = Solution stability test (HPLC) of single bile acid with maltodextrin in aqueous solution, Example I; assay type: physicochemical
Method: (§1) The stability of dosage formulations of the invention were evaluated by measuring the concentration of the relevant bile acid over time in preparations comprising soluble bile acid, a high molecular weight aqueous soluble starch conversion product, and water at various pH and temperature levels. The retention time of each bile acid may be adjusted as needed to permit individual analysis each bile acid present in a complex samples, i.e. a sample having a plurality of bile acids.
(§2) The stability tests were conducted on three different aqueous solution systems: […].
(§3) The stability tests were performed with HPLC and microscope light at various pH conditions under the normal and accelerated conditions. Accelerated conditions for testing pharmaceutical compositions have been described (Remington, The Science and Practice of Pharmacy, 19th ed., p. 640). […] Thus, the formulations of the examples are suitable for preparing a commercial liquid dosage form. […] Some formulations remain stable for over 2 years.
(§4) For the solution stability test for each bile acid, HPLC was used to measure the concentration of the relevant soluble bile acid under the following conditions: the elution solvent of 0.02 M KH2PO4:acetonitrile in a ratio of 55:45, with a pH of 3.01, the flow rate was 0.8 mL/min., the injection volume was 20 μL, wave length for detection was 195 nm. In the tables, the concentration of the indicated bile acid salt for each of the three numbered trials and the average thereof is reported on each line. The percentage indicates the relative concentration of the bile acid salt after incubation for a certain amount of time in comparison with the initial concentration.
100 mL of the aqueous solution in which one of the above bile acids is dissolved was prepared. Into the resulting clear solution, maltodextrin, a high molecular weight aqueous soluble starch conversion product, was added with agitation at room temperature. Purified water was added to adjust the total volume to be 100 mL. According to the instant invention and all examples, purified water is deionized, distilled deionized-distilled water, or a grade commonly used for pharmaceutical preparations.

[2] = Solution stability test (HPLC) of mixed bile acids with maltodextrin in aqueous solution, Example II; assay type: physicochemical; conditions: Table 2: pH 1, 50° C.
Method: as §1, §2, §3, §4
Into the resulting clear solution, maltodextrin was added with agitating at room temperature. Purified water was added to adjust the total volume to be 100 mL.

[3] = cited from earlier work
[4] = Hematic levels of UDCA and glyco UDCA after oral administration of 200 mg UDCA aqueous solution to three healthy men (Example VI); assay type: in vivo, human; conditions: male, human, in vivo, po, 200 mg
Method: The aqueous solution dosage forms, according to this invention, containing 200 mg of ursodeoxycholic acid (UDCA), were prepared according to the method described in the above-described Example III and were administered to three healthy men having normal body weight after fasting. The hematic levels of UDCA and glyco UDCA were evaluated by means of well known chemical methods. After applying buffered serum to sep-pak column, methanol eluate was derivatized with phenacyl bromide at 80° C. for 45 minutes. These phenacyl bromide derivatives were dissolved in acetonitrile in preparation for HPLC. The experimental results of the absorption measured at certain times after dosage administration include the total absorption expressed as the area under the serum concentration-time curve (AUC: μg/mL×hours), the maximum hematic concentration (Cmax; μg/mL) that has been obtained, and the time (Tmax; hour) in which said maximum concentration has been obtained.
The experimental pharmacokinetic tests of the aqueous solution dosage forms according to this invention carried out on men show substantial improvement in AUC, Cmax and Tmax in comparison with the best results from any dosage forms known presently.
Table 4A and Table 4B show plasma concentration of UDCA and GUDCA measured in 3 men over time following on oral administration of the UDCA and GUDCA containing formulations according to Example VI and comparison of results against results of others employing different pharmaceutical formulations of UDCA.

[5] = Table 1B: pH 10, 50° C., day 20

SMILES	Percentage of day 0 concentration ([1]; Table 1A: pH 7, 50° C., day 0) [%]	Percentage of day 0 concentration ([1]; Table 1A: pH 7, 50° C., day 4) [%]	Percentage of day 0 concentration ([1]; Table 1A: pH 7, 50° C., day 7) [%]	Percentage of day 0 concentration ([1]; Table 1A: pH 7, 50° C., day 20) [%]	Percentage of day 0 concentration ([1]; Table 1B: pH 10, 50° C., day 0) [%]	Percentage of day 0 concentration ([1]; Table 1B: pH 10, 50° C., day 4) [%]	Percentage of day 0 concentration ([1]; Table 1B: pH 10, 50° C., day 7) [%]	Percentage of day 0 concentration [1, 5] [%]	Percentage of day 0 concentration ([2]; day 0) [%]	Percentage of day 0 concentration ([2]; day 4) [%]	concentration by HPLC, Average ([2]; day 4)	concentration by HPLC, trials #1-#3 ([2]; day 4)	Percentage of day 0 concentration ([2]; day 7) [%]	concentration by HPLC, Average ([2]; day 7)	concentration by HPLC, trials #1-#3 ([2]; day 7)	Percentage of day 0 concentration ([2]; day 20) [%]	concentration by HPLC, Average ([2]; day 20)	concentration by HPLC, trials #1-#3 ([2]; day 20)	solubility in the gastric juices and in aqueous hydrochloric acid solution [3]	also measured
C[C@H](CCC(=O)O)[C@H]1CC[C@H]2[C@@H]3[C@H](O)C[C@@H]4C[C@H](O)CC[C@]4(C)[C@H]3C[C@H](O)[C@]12C [CA, cholic acid (3α, 7α, 12α-trihydroxy-5β-cholanic acid)]	100.0	95.4	100.8	103.0	100.0	99.1	103.6	106.4	100.0	89.8	0.457	0.453 and 0.466	86.9	0.443	0.434 and 0.426 and 0.468	40.6	0.207	0.207 and 0.206	–	–
C[C@H](CCC(=O)O)[C@H]1CC[C@H]2[C@@H]3[C@H](O)C[C@@H]4C[C@H](O)CC[C@]4(C)[C@H]3CC[C@]12C [CDCA, chenodeoxycholic acid (3α, 7α-dihydroxy-5β-cholanic acid)]	100.0	101.6	105.0	105.7	100.0	100.0	104.1	107.4	100.0	94.7	0.506	0.488 and 0.510 and 0.519	87.0	0.464	0.460 and 0.469 and 0.463	30.2	0.161	0.169 and 0.154	especially insoluble	concentration by HPLC, Average ([1]; Table 1A: pH 7, 50° C., day 0): 0.547; concentration by HPLC, trials #1-#3 ([1]; Table 1A: pH 7, 50° C., day 0): 0.572 and 0.539 and 0.530; concentration by HPLC, Average ([1]; Table 1A: pH 7, 50° C., day 4): 0.556; concentration by HPLC, trials #1-#3 ([1]; Table 1A: pH 7, 50° C., day 4): 0.540 and 0.552 and 0.576; concentration by HPLC, Average ([1]; Table 1A: pH 7, 50° C., day 7): 0.574; concentration by HPLC, trials #1-#3 ([1]; Table 1A: pH 7, 50° C., day 7): 0.581 and 0.588 and 0.553; concentration by HPLC, Average ([1]; Table 1A: pH 7, 50° C., day 20): 0.578; concentration by HPLC, trials #1-#3 ([1]; Table 1A: pH 7, 50° C., day 20): 0.565 and 0.608 and 0.560; concentration by HPLC, Average ([1]; Table 1B: pH 10, 50° C., day 0): 0.522; concentration by HPLC, trials #1-#3 ([1]; Table 1B: pH 10, 50° C., day 0): 0.541 and 0.532 and 0.495; concentration by HPLC, Average ([1]; Table 1B: pH 10, 50° C., day 4): 0.523; concentration by HPLC, trials #1-#3 ([1]; Table 1B: pH 10, 50° C., day 4): 0.511 and 0.519 and 0.538; concentration by HPLC, Average ([1]; Table 1B: pH 10, 50° C., day 7): 0.544; concentration by HPLC, trials #1-#3 ([1]; Table 1B: pH 10, 50° C., day 7): 0.564 and 0.527 and 0.540; concentration by HPLC, Average [1, 5]: 0.561; concentration by HPLC, trials #1-#3 [1, 5]: 0.556 and 0.569 and 0.558; solubility in the gastric pH range [3]: no longer soluble; solubility in water [3]: practically insoluble; concentration by HPLC, Average ([2]; day 0): 0.534; concentration by HPLC, trials #1-#3 ([2]; day 0): 0.560 and 0.528 and 0.513
C[C@H](CCC(=O)O)[C@H]1CC[C@H]2[C@@H]3CC[C@@H]4C[C@H](O)CC[C@]4(C)[C@H]3C[C@H](O)[C@]12C [DCA, deoxycholic acid (3α, 12α-dihydroxy-5β-cholanic acid)]	–	–	–	–	–	–	–	–	–	–	–	–	–	–	–	–	–	–	especially insoluble	solubility ([3]; water): 240 µg/mL (≈ 611 µM)
C[C@H](CCC(=O)NCC(=O)O)[C@H]1CC[C@H]2[C@@H]3[C@@H](O)C[C@@H]4C[C@H](O)CC[C@]4(C)[C@H]3CC[C@]12C [GUDCA, glycoursodeoxycholic acid]	–	–	–	–	–	–	–	–	–	–	–	–	–	–	–	–	–	–	–	AUC ([4]; AUC, mean): 4380 ± 1170 ng·h/mL; Cmax ([4]; individual men #1-#3): 1920 ng/mL; Cmax ([4]; mean): 1600 ng/mL; Tmax ([4]; Tmax, mean): 3.5 ± 1.5 h
